These results are taken from patent EP0361510B1, “Antitumor substance, process for preparing the same, and anticancer agent containing the same” (MEIJI SEIKA KAISHA LTD., priority 1988, dated 1990).

For data set [1], the system named is Mouse leukemia P-388 cells. Description: Antitumor activity in mice transplanted intraperitoneally with P-388 cells. In kind it is in vivo, BDF₁ mice. The conditions noted are these: intraperitoneal, 24 hours after transplantation, hydrochloride. The protocol: Antitumor activity of hydrochlorides of the compounds of the present invention was determined in the following manner.
Mouse leukemia P-388 cells maintained in the abdominal cavity of BDF₁ mouse were taken out and were suspended in physiological saline to give a cell concnetration of 1 × 10⁶ cells/0.2 mℓ. The cell suspension (0.2 mℓ) was transplanted to the abdominal cavity of 5-week-old male BDF₁ mice. The compounds of the present invention as shown in Table 3 was dissolved in 0.2 mℓ of physiological saline and was intraperitoneally administered to the mouse 24 hours after the transplantation of P-388 cells. No compound was administered to the mice of the control group. The T/C% value was calculated in accordance with the following formula. [formula]

For data set [2], the system named is Mouse leukemia P-388 cells. Nature of the data set: Cytotoxicity on P-388 cells (MTT assay). Conditions: for IC₅₀: 72 hours incubation; for IC50: Mus musculus, P388, 72 hours incubation, read-out: IC₅₀. In kind it is cell-based. How it is done: Cytotoxicity of the compounds according to the present invention was determined by MTT assay in the following manner.
Mouse leukemia P-388 cells were suspended in RPMI medium supplemented with 10% fetal calf serum and this suspension was used to inoculate the 96-well microplate to give a cell concentration of 2 × 10³ cells/well. The compound shown in Table 2 was dissloved in RPMI medium and add to each well for the test group, while no compound was added to wells of the control group. Incubation was carried out at 37°C for 72 hours at 5% CO₂. Then, MTT (3-(4,5-dimethylthiazol-2-yl)-2,5-diphenyl tetrazolium bromide) was added to each well to cause formation of formazan. The resulting formazan was dissolved by adding sodium dodecyl sulfate. Absorbance at 577-630 nm of each well was measured by the ELISA analyzer and 50% ihibitory concentration (IC₅₀) of each compound was calculated from the absorbance ratio of the test group to the control group.
On the technique in general: Formazan colour is commonly taken as a measure of viable cells.

Data set [3] in a line: Acute toxicity (LD50) in mice. The conditions noted are these: mouse, in vivo, hydrochloride, read-out: LD₅₀. How it is done:
The hydrochlorides of the compounds of the present invention as shown in Table 4 were intraperitoneally or intravenously administered to mice and acute toxicity (LD₅₀) of each compound was measured.

For data set [4] the following is noted: mouse, i.v.; cited from earlier work.

≈ marks a conversion by molar mass, not a printed value. Like-named read-outs stand apart in the source and are kept apart here.

Consider “3′,11-O-diisobutyryl SF2587 [Compound 8]”, for which the “Anti-P388 Activity (T/C%)” value in data set [1] (Dose 2.5 mg/kg) is 113%; in data set [1] (Dose 5 mg/kg), 144%; in data set [1] (Dose 10 mg/kg), 175%; in data set [1] (Dose 20 mg/kg), over 488%; in data set [1] (Dose 40 mg/kg), 69%. Further, the IC₅₀ in data set [2] came to 23.1 ng/mL.

Turning to 3′,11-O-divaleryl SF2587 [Compound 9], the “Anti-P388 Activity (T/C%)” value in data set [1] (Dose 2.5 mg/kg) came to 96%; in data set [1] (Dose 5 mg/kg) it was 117%; in data set [1] (Dose 10 mg/kg) it was 147%; in data set [1] (Dose 20 mg/kg), 189%; in data set [1] (Dose 40 mg/kg), 227%. The compound further returned an IC₅₀ in data set [2] of 34.3 ng/mL.

Take 3′-O-Butyryl SF2587 [Compound 5]: the “Anti-P388 Activity (T/C%)” value in data set [1] (Dose 1.25 mg/kg) was found to be 158%; in data set [1] (Dose 2.5 mg/kg), 186%; in data set [1] (Dose 5 mg/kg) it was 72%. This compound also returned an IC₅₀ in data set [2] of 17.8 ng/mL.

For the compound “3′-O-acetyl SF2587 Substance [Compound 1]”, the entries for the “Anti-P388 Activity (T/C%)” value in data set [1] (Dose 0.25 mg/kg), in data set [1] (Dose 0.5 mg/kg) and in data set [1] (Dose 1.0 mg/kg) were 124%, 134% and 144%, respectively. Also, the IC₅₀ in data set [2] is 19.4 ng/mL.

With 3′-O-isobutyryl SF2587 [Compound 7], in data set [2], the IC₅₀ worked out at 55.2 ng/mL.

In the case of 3′-O-propionyl SF2587 [Compound 3], in data set [2], the IC₅₀ was found to be 19.9 ng/mL.

For 11-O-Butyryl SF2587 [Compound 10], the IC₅₀ in data set [2] was determined as 16.0 ng/mL.

Regarding `CC(=O)Oc1c(C2CC(C)(N(C)C)C(OC(C)=O)C(C)O2)ccc2c1C(=O)c1c(cc(C)c3c(=O)cc(C4(C)OC4C4OC4C)oc13)C2=O` (centres unmarked) [Compound 2, 3′, 11-O-acetyl-SF2587], the LD50 is 16 mg/kg in data set [3] (ip, injection route i.p.) and 23.5 mg/kg in data set [3] (iv, injection route i.v.). Further, the “Anti-P388 Activity (T/C%)” value in data set [1] (Dose 3.5 mg/kg) is listed as 163%; in data set [1] (Dose 7 mg/kg), over 200%; in data set [1] (Dose 14 mg/kg), 70%. Further, the IC50 in data set [2] stood at 0.0231 µg/mL (≈ 0.0343 µM).

With `CCC(=O)Oc1c(C2CC(C)(N(C)C)C(OC(=O)CC)C(C)O2)ccc2c1C(=O)c1c(cc(C)c3c(=O)cc(C4(C)OC4C4OC4C)oc13)C2=O` (centres unmarked) [Compound 4, 3′,11-O-dipropionyl SF2587], the LD50 in data set [3] (ip, injection route i.p.) was determined as 40 mg/kg. Moreover, the “Anti-P388 Activity (T/C%)” value in data set [1] (Dose 1.56 mg/kg) is listed as 130%; in data set [1] (Dose 3.13 mg/kg) it was 133%; in data set [1] (Dose 6.25 mg/kg), 217%; in data set [1] (Dose 12.5 mg/kg) it was over 449%; in data set [1] (Dose 25 mg/kg), 71%. Moreover, the IC50 in data set [2] was found to be 0.0181 µg/mL (≈ 0.0258 µM).

On to `CCCC(=O)Oc1c(C2CC(C)(N(C)C)C(OC(=O)CCC)C(C)O2)ccc2c1C(=O)c1c(cc(C)c3c(=O)cc(C4(C)OC4C4OC4C)oc13)C2=O` (centres unmarked) [Compound 6, 3′-11-O-dibutyryl SF2587], for which, in data set [3] (ip, injection route i.p.), the LD50 stood at 120 mg/kg. For the same compound, the “Anti-P388 Activity (T/C%)” value in data set [1] (Dose 1.25 mg/kg) is on record as 96%; in data set [1] (Dose 2.5 mg/kg) it was 113%; in data set [1] (Dose 5 mg/kg) it was 144%; in data set [1] (Dose 10 mg/kg), 186%; in data set [1] (Dose 20 mg/kg), over 485%. Further, the IC50 in data set [2] was 0.0231 µg/mL (≈ 0.0317 µM).

As for `Cc1cc2c(c3oc(C4(C)OC4C4OC4C)cc(=O)c13)C(=O)c1c(ccc(C3CC(C)(N(C)C)C(O)C(C)O3)c1O)C2=O` (centres unmarked) [SF2587], in data set [4], the LD₅₀ entry is “about 5 mg/kg”.
